± gives the expanded uncertainty stated by the source.
Settings: 101 kPa, Liquid; for electrical conductivity: conductivity meter LF 340 and a standard conductivity cell TetraCon; for mass density: Pycnometric method

C=CCn1cc[n+](CCOC)c1.O=S(=O)([N-]S(=O)(=O)C(F)(F)F)C(F)(F)F
Settings	electrical conductivity [S/m]	mass density [kg/m3]	viscosity [mPa·s]
308.7 K	0.546 ± 0.033	–	–
309 K	–	1437 ± 2.2	23.7 ± 1
313.3 K	0.627 ± 0.038	–	–
314 K	–	1432.3 ± 2.2	20.3 ± 0.9
317 K	–	1429.6 ± 2.2	17.8 ± 0.8
318.1 K	0.72 ± 0.043	–	–
323.3 K	0.828 ± 0.05	–	–
323.5 K	–	1423.5 ± 2.2	14.6 ± 0.6
327.9 K	0.935 ± 0.056	–	–
328 K	–	1419.4 ± 2.2	13.1 ± 0.6
332.9 K	1.06 ± 0.063	–	–
334 K	–	1413.9 ± 2.2	11.2 ± 0.5
337.6 K	1.18 ± 0.071	–	–
338.5 K	–	1409.9 ± 2.2	10 ± 0.4
343 K	1.33 ± 0.08	–	–
344 K	–	1404.9 ± 2.2	8.8 ± 0.4
348 K	–	1401.3 ± 2.2	8.2 ± 0.4
348.1 K	1.48 ± 0.089	–	–
352 K	1.6 ± 0.096	–	–
354.2 K	–	1395.8 ± 2.2	7 ± 0.3
